This passage reports solubility results from patent US20040053842A1, “Methods of treatment with CETP inhibitors and antihypertensive agents” (Pfizer Inc., priority 2002, published 2004).

This data set in a line: aqueous solubility. The format is physicochemical. Particulars: aqueous environments.

`CCOC(=O)N1c2ccc(C(F)(F)F)cc2[C@@H](N(Cc2cc(C(F)(F)F)cc(C(F)(F)F)c2)C(=O)OC)C[C@H]1CC` [torceptrapib, [2R,4S]-4-[(3,5-bis-trifluoromethyl-benzyl)-methoxycarbonyl-amino]-2-ethyl-6-trifluoromethyl-3,4-dihydro-2H-quinoline-1-carboxylic acid ethyl ester] displayed a solubility of less than 0.04 µg/mL.

For orientation: solubility means the dissolved amount per volume that the medium holds.
